Like-named read-outs stand apart in the source and are kept apart here. *1 amine or outer side, *2 acyl side, *3 side chain or, on linkers, in order; H or OH if unused. Where a SMILES comes first, the peptide text is derived from it. Bridges are numbered along the chain shown (N, C = ends). Roman numbers before positions name the chains, in order. [ ]: non-standard residue; d: D form. Actinocin(9to1) = Cc1c2oc3c(C)ccc(C(=O)[*:1])c3nc-2c(C(=O)[*:2])c(N)c1=O; NMeV = CN[C@H](C(=O)O)C(C)C; Sar = CNCC(=O)O
Experiments:
Type in all cases: cell-based, human
[1] = test system: HIF-1α–NanoLuc HCT116 cells; assay: Viability (Luc): CellTiter-Glo counter screen in HIF-1α–NanoLuc cells; conditions: for Viability (Luc) confirmatory IC50: Table S7, 1% O2, 18 h; for IC50: 1% O2, 18 h
[2] = test system: hypoxia response element-beta-lactamase (HRE–bla); assay: HRE-bla reporter gene assay in ME-180 cells; conditions: Table S7, confirmatory screen; for Emax: read-out: HRE–bla confirmatory Efficacy; for IC50: read-out: HRE–bla confirmatory IC50
Experimental: (§1) Cell culture of HRE–bla ME-180 cells (Cat. No. K1644, Life Technologies) and HRE–bla assay were conducted according to a reported protocol [6]. […] The fluorescence signals (460/25 nm and 530/20 nm) of CCF4 and luminescence signals of CellTiter-Glo were acquired on an Envision and a ViewLux plate readers (Perkin Elmer), respectively.

HRE–bla ME-180 cells = assay: Viability (BLA): CellTiter-Glo counter screen in HRE–bla cells; conditions: for Viability (BLA) confirmatory IC50: Table S7, 1% O2, 18 h; for IC50: 1% O2, 18 h
Experimental: as §1

HIF-1α–NanoLuc = HIF-1α–NanoLuc reporter gene assay (qHTS primary and confirmatory screens)
[3] = Homo sapiens, Table S1, primary screen, hypoxia 1% O2, 18 h, read-out: IC50 (primary screen, HIF-1α–NanoLuc assay)
[4] = Homo sapiens, Table S1, primary screen, read-out: Efficacy (primary screen, HIF-1α–NanoLuc assay)
[5] = Homo sapiens, Table S2, primary screen, read-out: Pathway inhibitors (primary screen) HIF-1α–NanoLuc Activity Efficacy
[6] = Homo sapiens, Table S2, primary screen, read-out: Pathway inhibitors (primary screen) HIF-1α–NanoLuc Activity IC50
[7] = Homo sapiens, Table S2, validation, read-out: Pathway inhibitors (validation) HIF-1α–NanoLuc Activity Efficacy
[8] = Homo sapiens, Table S2, validation, read-out: Pathway inhibitors (validation) HIF-1α–NanoLuc Activity IC50
[9] = Homo sapiens, Table S7, confirmatory screen, read-out: HIF-1α–NanoLuc confirmatory Efficacy
[10] = Homo sapiens, Table S7, primary screen, read-out: HIF-1α–NanoLuc primary Efficacy
[11] = Homo sapiens, ME-180, Table S7, confirmatory screen
[12] = Homo sapiens, Table S7, primary screen, read-out: HIF-1α–NanoLuc primary IC50
[13] = Homo sapiens, HCT-116, Table S7, confirmatory screen
[14] = Homo sapiens, Table S7, confirmatory screen, read-out: HIF-1α–NanoLuc confirmatory IC50
[15] = Homo sapiens, 18 h, read-out: IC50 (primary screen, HIF-1α–NanoLuc assay)
[16] = Homo sapiens, read-out: Efficacy (primary screen, HIF-1α–NanoLuc assay)
[17] = Homo sapiens, read-out: HIF-1α–NanoLuc confirmatory Efficacy
[18] = Homo sapiens, read-out: HIF-1α–NanoLuc confirmatory IC50
[19] = Homo sapiens, read-out: HIF-1α–NanoLuc primary Efficacy
[20] = Table S2, validation, read-out: Pathway inhibitors (validation) HIF-1α–NanoLuc Activity IC50

Row | SMILES | Viability (Luc) confirmatory IC50 [1] | Emax ([2]; Homo sapiens, ME-180) [%] | IC50 ([2]; Homo sapiens, ME-180) [µM] | Viability (BLA) confirmatory IC50 (HRE–bla ME-180 cells) | Emax (HIF-1α–NanoLuc; [7]) [%] | IC50 (HIF-1α–NanoLuc; [8]) [µM] | Emax (HIF-1α–NanoLuc; [9]) [%] | Emax (HIF-1α–NanoLuc; [10]) [%] | IC50 (HRE–bla ME-180 cells; [11]) [µM] | IC50 (HIF-1α–NanoLuc; [12]) [µM] | IC50 (HIF-1α–NanoLuc; [14]) [µM] | other results
1 | CNC(=O)c1cc(Oc2ccc(NC(=O)Nc3ccc(Cl)c(C(F)(F)F)c3)cc2)ccn1 [Sorafenib] | Inactive | 98 ± 7 | 17.6 ± 8.6 | Inactive | 100 ± 6 | 23.6 ± 2.71 | 100 ± 6 | 156 |  |  |  | IC50 (HIF-1α–NanoLuc; [3]): 13.3 µM; Emax (HIF-1α–NanoLuc; [4]): 156%; Emax (HIF-1α–NanoLuc; [5]): 46%; IC50 (HIF-1α–NanoLuc; [6]): 1.5 µM
2 | COc1cc2ncnc(Nc3ccc(F)c(Cl)c3)c2cc1OCCCN1CCOCC1 [Gefitinib] | Inactive | 45 ± 14 |  | Inactive |  |  | 31 ± 3 | 86 |  |  |  | Emax (HIF-1α–NanoLuc; [4]): 86%
3 | C#Cc1cccc(Nc2ncnc3cc(OCCOC)c(OCCOC)cc23)c1 [Erlotinib] | Inactive | 59 ± 15 | 7.95 ± 3.47 | Inactive | 35 ± 6 | 6.64 ± 2.42 | 35 ± 6 | 33 |  |  |  | IC50 (HIF-1α–NanoLuc; [3]): 2.66 µM; Emax (HIF-1α–NanoLuc; [4]): 33%; Emax (HIF-1α–NanoLuc; [5]): 33%
4 | CS(=O)(=O)CCNCc1ccc(-c2ccc3ncnc(Nc4ccc(OCc5cccc(F)c5)c(Cl)c4)c3c2)o1 [Lapatinib] | Inactive | 78 ± 6 | 11.4 ± 0.75 |  | 50 ± 6 | 20.2 ± 1.31 | 50 ± 6 | 56 | 20.4 ± 1.33 | 33.5 |  | 
5 | CCCCC(CC)CNC(=N)NC(=N)NCCCCCCNC(=N)NC(=N)NCC(CC)CCCC (stereo not shown) [Alexidine] |  | 87 ± 18 | 8.78 ± 1.12 |  |  |  | 107 ± 2 | 126 | 8.83 ± 1.59 | 10.6 | 9.35 | IC50 [1, 13]: 18.9 ± 3.53 µM
6 | Cc1c2oc3c(C)ccc(C(=O)N[C@@H]4C(=O)N[C@H](C(C)C)C(=O)N5CCC[C@H]5C(=O)N(C)CC(=O)N(C)[C@@H](C(C)C)C(=O)O[C@@H]4C)c3nc-2c(C(=O)N[C@@H]2C(=O)N[C@H](C(C)C)C(=O)N3CCC[C@H]3C(=O)N(C)CC(=O)N(C)[C@@H](C(C)C)C(=O)O[C@@H]2C)c(N)c1=O [Actinomycin D] (I: T[dV]P[Sar][NMeV] / II: T[dV]P[Sar][NMeV]; ester I:1-I:C, II:1-II:C; linker I:N-II:N via Actinocin(9to1)) | Inactive | 78 ± 5 | 0.02 |  |  |  |  |  | 1.52 ± 2.33 |  |  | Effect on HIF-1α–NanoLuc level / luciferase activity, in words (HIF-1α–NanoLuc): caused reduced NanoLuc activity; IC50 (HIF-1α–NanoLuc; [15]): 0.04 µM; Emax (HIF-1α–NanoLuc; [16]): 99%; Emax (HIF-1α–NanoLuc; [17]): 87 ± 4%; IC50 (HIF-1α–NanoLuc; [18]): 0.03 ± 0.01 µM; Emax (HIF-1α–NanoLuc; [19]): 99%
7 | N#C/C(=C\c1ccc(-c2cc(Cl)ccc2Cl)o1)C(=O)Nc1cccc2ncccc12 [AGK2] |  |  |  |  |  |  |  |  |  |  |  | IC50 ([1]; Table S7, confirmatory screen): 21.2 ± 3.96 µM; HRE–bla confirmatory Efficacy [2]: 63 ± 14%; IC50 [2]: 9.47 ± 3.45 µM; IC50 (HRE–bla ME-180 cells; Table S7, confirmatory screen): 10.1 ± 2.97 µM; Pathway inhibitors (validation) HIF-1α–NanoLuc Activity Efficacy (HIF-1α–NanoLuc; Table S2, validation): 107± 9%; IC50 (HIF-1α–NanoLuc; [20]): 19.5 ± 2.49 µM; HIF-1α–NanoLuc confirmatory Efficacy (HIF-1α–NanoLuc; Table S7, confirmatory screen): 107 ± 9%
8 | C=CC(=O)Nc1cc2c(Nc3ccc(F)c(Cl)c3)ncnc2cc1OCCCN1CCOCC1 [Canertinib] | Inactive | 37 ± 22 | 4.67 ± 7.5 |  | 88 ± 20 | 24.8 ± 10.7 | 88 ± 20 | 50 | 21.2 ± 2.44 |  | 28.8 ± 10.7 | Emax (HIF-1α–NanoLuc; [5]): 50%; IC50 (HIF-1α–NanoLuc; [6]): 2.37 µM
9 | Nc1nc2nc[nH]c2c(=S)[nH]1 [6-Thioguanine] |  | 88 ± 1 | 7.83 ± 1 | Inactive |  |  | 81 ± 7 | 81 |  | 2.11 | 3.26 ± 0.81 | IC50 [1, 13]: 2.3 ± 0.87 µM; Emax ([1]; Homo sapiens, HCT-116, Table S7, confirmatory screen, read-out: Viability (Luc) confirmatory Efficacy): 57 ± 2%
10 | c1ccc(CCNc2nc(-c3ccccc3)cs2)cc1 [Fanetizole] | Inactive |  |  | Inactive |  |  | 28 ± 5 | 123 |  | 26.6 | 16.4 ± 3.97 | HRE–bla confirmatory IC50 [2]: Inactive
11 | C[C@@H]1C[C@@H]([C@H](O)CC2CC(=O)NC(=O)C2)C(=O)[C@@H](C)C1 [Cycloheximide] | Inactive | 92 ± 2 | 1.06 ± 0.12 |  |  |  |  |  | 8.34 ± 4.61 |  |  | Effect on HIF-1α–NanoLuc level / luciferase activity, in words (HIF-1α–NanoLuc): showed reduced protein turnover and decreased luciferase signal; IC50 (HIF-1α–NanoLuc; [15]): 0.24 µM; Emax (HIF-1α–NanoLuc; [16]): 92%; Emax (HIF-1α–NanoLuc; [17]): 104 ± 5%; IC50 (HIF-1α–NanoLuc; [18]): 0.53 µM; Emax (HIF-1α–NanoLuc; [19]): 92%
12 | CC(/C=C/C(=O)NO)=C\[C@@H](C)C(=O)c1ccc(N(C)C)cc1 [Trichostatin A] | Inactive |  |  |  |  |  |  |  |  |  |  | HRE–bla confirmatory Efficacy [2]: 92 ± 11%; IC50 [2]: 12.2 ± 3.9 µM; IC50 (HRE–bla ME-180 cells; Table S7, confirmatory screen): 9.68 ± 3.79 µM; Emax (HRE–bla ME-180 cells; Table S7, confirmatory screen, read-out: Viability (BLA) confirmatory Efficacy): 43 ± 13%; Pathway inhibitors (validation) HIF-1α–NanoLuc Activity Efficacy (HIF-1α–NanoLuc; Table S2, validation): 55 ± 4%; IC50 (HIF-1α–NanoLuc; [20]): 0.67 ± 0.26 µM; HIF-1α–NanoLuc confirmatory Efficacy (HIF-1α–NanoLuc; Table S7, confirmatory screen): 55 ± 4%
13 | Cc1nc(Nc2ncc(C(=O)Nc3c(C)cccc3Cl)s2)cc(N2CCN(CCO)CC2)n1 [Dasatinib] | Inactive | 52 ± 11 | 0.03 ± 0.02 | Inactive | 46 ± 3 | 23.6 ± 8.59 | 46 ± 3 | 56 |  | 21.1 |  | Emax (HIF-1α–NanoLuc; [5]): 82%; IC50 (HIF-1α–NanoLuc; [6]): 0.94 µM
14 | CCCCCCCCCCCCCC[N+](C)(C)C.[Br-] [MitMAB] | Inactive |  |  |  |  |  |  |  |  |  |  | HRE–bla confirmatory Efficacy [2]: 100 ± 5%; IC50 [2]: 5.73 ± 1.88 µM; IC50 (HRE–bla ME-180 cells; Table S7, confirmatory screen): 18.2 ± 2.51 µM; HIF-1α–NanoLuc confirmatory Efficacy (HIF-1α–NanoLuc; Table S7, confirmatory screen): 99 ± 9%; IC50 (HIF-1α–NanoLuc; Table S7, confirmatory screen, read-out: HIF-1α–NanoLuc confirmatory IC50): 15.2 ± 7.16 µM; HIF-1α–NanoLuc primary Efficacy (HIF-1α–NanoLuc; Table S7, primary screen): 129%; IC50 (HIF-1α–NanoLuc; Table S7, primary screen, read-out: HIF-1α–NanoLuc primary IC50): 2.11 µM
15 | CC(=O)Oc1ccc(C(c2ccc(OC(C)=O)cc2)c2ccccn2)cc1 [Bisacodyl] | Inactive | 93 ± 4 | 0.84 ± 0.1 |  |  |  | 26 ± 6 | 110 | 0.69 ± 0.05 | 0.84 | 3.91 ± 0.7 | 
16 | CC(C)(C)c1nc(-c2cccc(NS(=O)(=O)c3c(F)cccc3F)c2F)c(-c2ccnc(N)n2)s1 [Dabrafenib] | Inactive | 43 ± 1 | 6.4 ± 1.55 | Inactive | 26 ± 13 | 0.47 ± 0.24 | 26 ± 13 |  |  |  |  | 
17 | CCOC(=O)C1(c2ccccc2)CCN(CCC(C#N)(c2ccccc2)c2ccccc2)CC1 [Diphenoxylate] | Inactive | 60 ± 4 | 7.8 ± 0.53 | Inactive |  |  |  |  |  |  |  | Emax (HIF-1α–NanoLuc; [17]): 104 ± 12%; IC50 (HIF-1α–NanoLuc; [18]): 13.7 ± 0.93 µM; Emax (HIF-1α–NanoLuc; [19]): 82%; IC50 (HIF-1α–NanoLuc; Homo sapiens, read-out: HIF-1α–NanoLuc primary IC50): 16.8 µM
18 | Cn1cnc([N+](=O)[O-])c1Sc1ncnc2nc[nH]c12 [Azathioprine] |  |  |  | Inactive |  |  | 50 ± 11 | 67 |  | 3.42 | 8.07 ± 1.82 | IC50 [1, 13]: 2.11 ± 0.53 µM; HRE–bla confirmatory IC50 [2]: Inactive
19 | O=C(Nc1ccc(Cl)cc1)Nc1ccc(Cl)c(C(F)(F)F)c1 [Cloflucarban] | Inactive | 98 ± 1 | 6.8 ± 1.55 |  |  |  | 98 ± 4 | 66 | 22.9 ± 3.16 | 7.5 | 14.3 ± 0.93 | 
20 | O=C1NCN(c2ccccc2)C12CCN(CCCOc1ccc(F)cc1)CC2 [AMI-193] | Inactive |  |  |  |  |  | 48 ± 6 | 57 | 25.8 ± 4.4 | 3.35 | 12.2 ± 0.83 | HRE–bla confirmatory IC50 [2]: Inactive
